Columns and labels:
hERβ [1] = assay: Relative binding affinity (RBA) to hERβ, cited from Kuiper et al.; design: species or system human; settings: quotient of RBA to hERβ and hERα
Excerpt: In this case, it is assumed that ERβ predominates in the rat prostates over ERα, and ERα predominates in rat uteri over ERβ.

[2] = system: estrogen receptor preparations from rat prostates; assay: Competitive binding with 3H-estradiol to estrogen receptor from rat prostate cytosol
hERβ [3] = settings: relative binding affinity, estradiol = 100; cited from earlier work

Row | Compound | ERβ/ERα (hERβ [1]) | Rat prost. ER(RBA) ([2]; rat prostate cytosol, 3H-estradiol as ligand, estradiol = 100) | prost. ER/uterus ER ([2]; ratio of RBA at rat prostate ER to rat uterus ER) | hERβ RBA* (hERβ [3])
1 | Estradiol | 1 | 100 | 1 | 100
2 | C[C@]12CC[C@@H]3c4ccc(O)cc4CC[C@H]3[C@@H]1C[C@@H](O)[C@@H]2O [Estriol] | – | – | – | 21

Reference: patent publication US20040029847A1 (priority 2003, published 2004)
